Values quoted from earlier work in patent US11839666B2, “Oral care article comprising a hydrophobic delivery carrier and solid hydrophilic particles comprising an agent” (The Procter & Gamble Company, priority 2020, dated 2023).
Read-outs that look alike come from different tables or passages of the source.

Conditions: at 20 C

NC(N)=O.OO [Urea Hydrogen Peroxide Adduct]
Solubility in water (per Safety Data Sheet from supplier): 800 grams per liter | Solubility in water (restated from Safety Data Sheet value): 80 parts per 100 parts of water
